According to patent EP0369664B1, “Fish CRF” (THE SALK INSTITUTE FOR BIOLOGICAL STUDIES, priority 1988, dated 1994):
Read-outs that look alike come from different tables or passages of the source. No end group written: not given here.

Assays:
ACTH and β-endorphin = ACTH and β-endorphin activities in vitro and in vivo, general statement
[1] = activity and learning performance after administration into the ventricles; type: in vivo; conditions: rats, administered into the ventricles
[2] = blood pressure in the rat; type: in vivo
[3] = blood pressure in the dog; type: in vivo
[4] = tested on: cultured rat pituitary cells; experiment: secretion of ACTH and β-endorphin by cultured rat pituitary cells; type: cell-based
teleost fish pituitaries = experiment: secretion of ACTH by teleost fish pituitaries; type: cell-based
[5] = lowering of blood pressure, general statement; type: in vivo; conditions: for an extended time period
[6] = tested on: ACTH and β-END-LI secretion; experiment: ACTH and β-END-LI secretion in vivo in several rat preparations
[7] = tested on: pituitary-adrenalcortical axis; experiment: stimulation of the pituitary-adrenalcortical axis and levels of pro-opiomelanocortin products; conditions: in vivo
[8] = tested on: secretion of ACTH and β-endorphin; conditions: reported; cited from earlier work
[9] = in mammals; reported; cited from earlier work
gastric acid production = conditions: in vivo; cited from earlier work
[10] = tested on: secretion of ACTH and β-END-LI; experiment: secretion of ACTH and β-END-LI, test system not specified
[11] = vasodilatory-hypotensive activity, lowering of systemic blood pressure; type: in vivo; conditions: for vasodilatory-hypotensive activity: called mammalian for Example III only; for systemic blood pressure: in vivo

Substance: SEEPPISLDLTFHLLREVLEMARAEQLAQQAHSNRKMMEIF-NH2 [Example I]
- ACTH activies (ACTH and β-endorphin): stimulates
- β-endorphin activies (ACTH and β-endorphin): stimulates
- activity [1]: increases
- learning performance [1]: improves
- blood pressure [2]: marked fall
- blood pressure [3]: sustained depression
- secretion of ACTH [4]: stimulates
- secretion of β-endorphin [4]: stimulates
- secretion of ACTH (teleost fish pituitaries): stimulates
- blood pressure [5]: substantially lowers
- ACTH secretion [6]: stimulates
- β-END-LI secretion [6]: stimulates
- levels of ACTH, β-END, β-lipotropin, other pro-opiomelanocortin gene products and corticosterone [7]: elevates
- pituitary-adrenalcortical axis [7]: profoundly stimulates

Substance: oCRF: ovine corticotropin releasing factor, characterized in 1981, U.S. Patent No. 4,415,558 (H-SQEPPISLDLTFHLLREVLEMTKADQLAQQAHSNRKLLDIA-NH2; ends and bridges not checked; UniProt P01142 148-188, looked up)
- secretion of ACTH [8]: stimulating
- secretion of β-endorphin [8]: stimulating
- blood pressure [9]: lowering
- gastric acid production (gastric acid production): inhibits

Substance: Ac-SEEPPISLDLTFHLLREVLEMARAEQLAQQAHSNRKMMEIF-NH2 [II]
- secretion of ACTH [10]: stimulates
- secretion of β-END-LI [10]: stimulates
- vasodilatory-hypotensive activity [11]: causes vasodilatory-hypotensive activity
- systemic blood pressure [11]: lowering

Substance: PPISLDLTFHLLREVLEMARAEQLAQQAHSNRKMMEIF-NH2 [III]
- secretion of ACTH [10]: stimulates
- vasodilatory-hypotensive activity [11]: significant
- systemic blood pressure [11]: lowering

Substance: Sauvagine
- secretion of ACTH [8]: stimulating
- secretion of β-endorphin [8]: stimulating
- blood pressure [9]: lowering
